This note sets out measurements from ChEMBL document CHEMBL1201862, “PubChem BioAssay data set” (2004).

Among the test systems are NCI-H226; IGROV-1; RPMI-8226; MOLT-4; DU-145; UACC-257; SR; NCI-H522; OVCAR-8; SNB-19; COLO 205; T47D; SNB-75; HL-60; SK-MEL-5; HCT-116; CCRF-CEM; SK-MEL-28; MDA-MB-435; HCT-15.
Common to all, as to experiment: DTP human tumour cell line panel, 48 h

Usually GI50 stands for the concentration that inhibits growth by half.

Molecules are shown by their SMILES.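 48-hour exposure; five concentrations; linearly interpolated endpoints. Abbreviation: GI50, concentration required for 50% inhibition of growth.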 Activity calls are given as the source filed them. Cut-off read from the data, not from the text of the source: active = GI50 up to about 1.1 µM and inactive = higher. Some results are limits rather than exact numbers.

Consider `CN1Cc2cc(O)c(O)cc2C(O)C1` (configuration not stated), for which the GI50 in the test on NCI-H226, with IGROV-1, with RPMI-8226, in the test with MOLT-4, with DU-145 and in the test with UACC-257 was > 100 µM (inactive) each time. Also, the GI50 in the test with SR is 1.19 µM (inactive); in the test on NCI-H522, 49.3 µM (inactive); with OVCAR-8, > 100 µM (inactive); in the test on SNB-19 it was > 100 µM (inactive); in the test on COLO 205, > 100 µM (inactive); with T47D it was > 100 µM (inactive). For the same compound, the GI50 in the test with SNB-75 is > 100 µM (inactive); in the test with HL-60 it was 38.3 µM (inactive); with SK-MEL-5 it was > 100 µM (inactive); in the test with HCT-116, > 100 µM (inactive); in the test with CCRF-CEM it was 34.8 µM (inactive); in the test on SK-MEL-28 it was > 100 µM (inactive). The GI50 with MDA-MB-435 was 82.6 µM (inactive).
Turning to `NC(Cc1cccnn1)C(=O)O` (configuration not stated), the GI50 in the test with NCI-H226, in the test with IGROV-1, in the test on RPMI-8226, in the test with MOLT-4, in the test on DU-145 and in the test with UACC-257 was > 100 µM (inactive) in each case. Besides, the GI50 in the test on SR is > 100 µM (inactive); with NCI-H522, > 100 µM (inactive); with OVCAR-8, > 100 µM (inactive); in the test on SNB-19, > 100 µM (inactive); in the test on HCT-15, more than 100 µM; with COLO 205 it was > 100 µM (inactive). The GI50 in the test with T47D, in the test with SNB-75, with HL-60, with SK-MEL-5, in the test with HCT-116 and in the test on CCRF-CEM was > 100 µM (inactive) throughout. The GI50 with SK-MEL-28 and with MDA-MB-435 was > 100 µM (inactive) throughout.
Turning to `COc1ccc(C2(CC(C)O)SCCCS2)cc1` (configuration not stated), the GI50 was > 100 µM (inactive) in the test on NCI-H226; > 100 µM (inactive) in the test with IGROV-1; > 100 µM (inactive) in the test with RPMI-8226; 42 µM (inactive) with MOLT-4; > 100 µM (inactive) with DU-145; > 100 µM (inactive) with UACC-257. Further, the GI50 with SR was > 100 µM (inactive); with NCI-H522, > 100 µM (inactive); with OVCAR-8 it was > 100 µM (inactive); in the test with SNB-19, > 100 µM (inactive); with HCT-15, more than 100 µM; in the test with COLO 205, > 100 µM (inactive). Besides, the GI50 in the test with T47D is > 100 µM (inactive); with SNB-75 it was > 100 µM (inactive); with HL-60 it was 37.2 µM (inactive); in the test on SK-MEL-5, > 100 µM (inactive); in the test with HCT-116, > 100 µM (inactive); with CCRF-CEM, 63.1 µM (inactive). In addition, the GI50 in the test with SK-MEL-28 and in the test with MDA-MB-435 was > 100 µM (inactive) in each case.
Turning to `Cc1cccc(NC(=O)/C=C/c2ccccc2)c1C`, the GI50 in the test on NCI-H226, with RPMI-8226, in the test with MOLT-4, in the test on DU-145, with UACC-257 and in the test on SR was > 100 µM (inactive) in each case. Besides, the GI50 with NCI-H522 is > 100 µM (inactive); in the test with OVCAR-8, > 100 µM (inactive); in the test with SNB-19 it was > 100 µM (inactive); in the test with HCT-15, more than 100 µM; with COLO 205 it was > 100 µM (inactive); in the test with T47D, > 100 µM (inactive). Besides, the GI50 in the test with SNB-75 is 77.6 µM (inactive); in the test with HL-60 it was > 100 µM (inactive); in the test with SK-MEL-5, > 100 µM (inactive); in the test with HCT-116, > 100 µM (inactive); in the test with CCRF-CEM, > 100 µM (inactive); in the test on SK-MEL-28, > 100 µM (inactive). The GI50 in the test on MDA-MB-435 was > 100 µM (inactive).
Turning to `COc1cc(C(O)CCBr)c(OC)cc1C` (configuration not stated), the GI50 is 32.9 µM (inactive) with NCI-H226; 24.4 µM (inactive) with IGROV-1; 6.73 µM (inactive) in the test with RPMI-8226; 43.2 µM (inactive) with DU-145; 27.7 µM (inactive) in the test with UACC-257; 13 µM (inactive) in the test with SR. Further, the GI50 in the test on NCI-H522 is 27.5 µM (inactive); in the test on OVCAR-8 it was 6.97 µM (inactive); in the test on SNB-19, > 75.5 µM (inactive); with HCT-15 it was 7.4 µM; in the test with COLO 205 it was 17.6 µM (inactive); with T47D, > 72.1 µM (inactive). In addition, the GI50 in the test with SNB-75 was 30.1 µM (inactive); with HL-60, > 24.7 µM (inactive); with SK-MEL-5, 6.18 µM (inactive); in the test on HCT-116, 3.93 µM (inactive); with CCRF-CEM it was 3.07 µM (inactive); in the test on SK-MEL-28, 24.4 µM (inactive). Further, the GI50 with MDA-MB-435 is 4.3 µM (inactive).
Take `CSc1ccc(-c2cc(-c3nc4ccccc4[nH]3)nc3[nH]c(-c4nc5ccccc5[nH]4)cc(=O)c23)cc1`: the GI50 with NCI-H226 is 84.5 µM (inactive); with IGROV-1, > 100 µM (inactive); in the test with RPMI-8226, 41.9 µM (inactive); in the test on MOLT-4 it was > 100 µM (inactive); in the test on DU-145 it was > 100 µM (inactive); with UACC-257 it was > 100 µM (inactive). The GI50 in the test on SR was > 100 µM (inactive); in the test with NCI-H522, > 100 µM (inactive); in the test with OVCAR-8, 71 µM (inactive); with SNB-19 it was > 100 µM (inactive); with HCT-15 it was more than 100 µM; with COLO 205, 37.8 µM (inactive). Moreover, the GI50 in the test with T47D was 95.1 µM (inactive); in the test with SNB-75, 56.2 µM (inactive); in the test on HL-60, > 100 µM (inactive); with HCT-116 it was 39.4 µM (inactive); in the test on CCRF-CEM, 73.6 µM (inactive); with MDA-MB-435, 41.1 µM (inactive).
With `CC(=O)OCCCC(NC(=O)OC(C)(C)C)C(=O)NC(CCCOC(C)=O)C(=O)NC(Cc1ccc([N+](=O)[O-])cc1)C(=O)NCC(=O)OCc1ccccc1` (configuration not stated), the GI50 in the test with NCI-H226 is 16.1 µM (inactive); with IGROV-1, 17.9 µM (inactive); in the test on RPMI-8226, 19.9 µM (inactive); in the test on MOLT-4, 37.6 µM (inactive); in the test on DU-145 it was 16.4 µM (inactive); with UACC-257, 15.3 µM (inactive). For the same compound, the GI50 in the test with SR is 15.6 µM (inactive); in the test on NCI-H522 it was 18.1 µM (inactive); in the test with OVCAR-8, 17.3 µM (inactive); in the test with SNB-19 it was 17.8 µM (inactive); with HCT-15, 15.1 µM; in the test on COLO 205, 17.6 µM (inactive). In addition, the GI50 in the test on T47D was 18 µM (inactive); with HL-60, 3.15 µM (inactive); in the test on SK-MEL-5, 16.4 µM (inactive); in the test with HCT-116 it was 18.1 µM (inactive); with CCRF-CEM, 29.7 µM (inactive); in the test on SK-MEL-28 it was 17.9 µM (inactive). Further, the GI50 in the test with MDA-MB-435 was 17.3 µM (inactive).
For the compound `Cc1ccc(OCC2OC(C#N)C(Oc3ccc(C)cc3)C2Oc2ccc(C)cc2)cc1` (configuration not stated), the GI50 with NCI-H226, in the test on IGROV-1, in the test on RPMI-8226, in the test on MOLT-4, in the test on DU-145 and with SR was > 100 µM (inactive) in each case. The GI50 in the test with NCI-H522 is > 100 µM (inactive); with OVCAR-8, > 100 µM (inactive); in the test on SNB-19 it was > 100 µM (inactive); in the test with HCT-15 it was more than 100 µM; with COLO 205, > 100 µM (inactive); with T47D, > 100 µM (inactive). The GI50 in the test on SNB-75 was 6.79 µM (inactive); in the test with HL-60, > 100 µM (inactive); with SK-MEL-5, > 100 µM (inactive); in the test on HCT-116, > 100 µM (inactive); with CCRF-CEM, > 100 µM (inactive); in the test with SK-MEL-28 it was > 100 µM (inactive). Also, in the test on MDA-MB-435, the GI50 was > 100 µM (inactive).
As for `O=S(=O)(O)CCSSCCS(=O)(=O)O`, the GI50 in the test on NCI-H226, in the test on IGROV-1, with RPMI-8226, in the test on MOLT-4, with DU-145 and in the test with UACC-257 was > 1000 µM (inactive) in each case. Further, the GI50 with SR was > 1000 µM (inactive); with NCI-H522 it was > 1000 µM (inactive); with OVCAR-8 it was > 1000 µM (inactive); in the test on SNB-19, > 1000 µM (inactive); in the test on HCT-15, more than 1000 µM; in the test on COLO 205, > 1000 µM (inactive). For the same compound, the GI50 in the test on T47D, with SNB-75, with HL-60, in the test on HCT-116, with CCRF-CEM and in the test on SK-MEL-28 was > 1000 µM (inactive) each time. The GI50 with MDA-MB-435 was > 1000 µM (inactive).
Take `CC(=O)O[C@@H]1C(C2CCCCC2)C=[N+]([O-])O[C@@H]1OC1CCCC1(c1ccccc1)c1ccccc1` (some centres not stated): the GI50 with NCI-H226 is 16.6 µM (inactive); with IGROV-1 it was 3.21 µM (inactive); in the test on RPMI-8226, 2.58 µM (inactive); in the test on MOLT-4, 3.32 µM (inactive); in the test on DU-145, 10.9 µM (inactive); in the test with UACC-257, 14.9 µM (inactive). For the same compound, the GI50 in the test with SR was 2.62 µM (inactive); with NCI-H522 it was 2.07 µM (inactive); with OVCAR-8, 2.04 µM (inactive); with SNB-19 it was 16.5 µM (inactive); in the test with HCT-15, 1.92 µM; in the test on COLO 205, 5.73 µM (inactive). The GI50 is 2.45 µM (inactive) with T47D; 3.85 µM (inactive) with SNB-75; 1.6 µM (inactive) in the test with HL-60; 14.3 µM (inactive) with SK-MEL-5; 4.06 µM (inactive) in the test with HCT-116; 2.63 µM (inactive) with CCRF-CEM. Besides, the GI50 was 2.32 µM (inactive) in the test on SK-MEL-28 and 3.06 µM (inactive) in the test on MDA-MB-435.
